Legend:
Format in all cases: cell-based
Ovcar3 (Muc16+) cells = assay: In vitro cytotoxicity assay, Ovcar3 cells (CCK8 viability); conditions: naked payload, 3 days; for Ovcar3 % kill: % kill reported for the highest dose; for IC50: CCK8
Method: (§1) In this Example, the ability of various antibody-drug conjugates and naked payloads to kill antigen-expressing tumor cells in vitro was assessed.
(§2) Ovcar3 (Muc16+) cells were seeded in 96 well plates at 3000 cells per well in complete growth media and grown overnight. For cell viability curves, serially diluted conjugates or naked payloads were added to the cells at final concentrations ranging from 100 nM to 5 pM and incubated for 3 days. To measure viability, cells were incubated with CCK8 (Dojindo) for the final 2 hours and the absorbance at 450 nm (OD450) was determined on a Victor (Perkin Elmer). Background OD450 levels determined from digitonin (40 nM) treated cells were subtracted from all wells and viability is expressed as a percentage of the untreated controls. IC50 values were determined from a four-parameter logistic equation over a 10-point response curve (GraphPad Prism). […] All curves and IC50 values are corrected for payload equivalents. The plot of % Cell Viability vs. Log 10 [M]
(§3) All IC50s are expressed in nM concentration and % kill is reported for the highest dose. All curves and IC50 values are corrected for payload equivalents. The plot of % Cell Viability vs. Log 10 [M]

SKBR3 (Her2+) cells = assay: In vitro cytotoxicity assay, SKBR3 cells (CCK8 viability); conditions: naked payload, SKBr-3 cells, 3 days; for SKBr-3 % kill: % kill reported for the highest dose; for IC50: CCK8
Method: as §1
as §2, with “SKBR3 (Her2+)” for “Ovcar3 (Muc16+)”, “8000” for “3000”
as §3

C4-2 (STEAP2+) cells = assay: In vitro cytotoxicity assay, C4-2 cells (CellTiter-Glo viability); conditions: naked payload, 5 days; for C4-2 % kill: % kill reported for the highest dose; for IC50: CellTiter-Glo
Method: as §1
C4-2 (STEAP2+) cells were seeded in 96 well plates at 4000 cells per well in complete growth media and grown overnight. For cell viability curves, serially diluted conjugates or naked payloads were added to the cells at final concentrations ranging from 100 nM to 5 pM and incubated for 5 days. To measure viability, cells were incubated with CellTiter-Glo reagents for 5 minutes and luminescence was determined on a Victor plate reader (PerkinElmer). IC50 values were determined from a four-parameter logistic equation over a 10-point response curve (GraphPad Prism).
as §3

In the case of COc1cc2cc(c1Cl)N(C)C(=O)CC(OC(=O)Nc1ccc(N)cc1)C1(C)OC1C(C)C1CC(O)(NC(=O)O1)C(OC)C=CC=C(C)C2 (stereo not drawn) [Compound 8, Maytan-3-O-carbamoyl-N-(4-aminobenzene)], the Ovcar3 % kill (Ovcar3 (Muc16+) cells) is reported as “** (** indicates % kill greater than, or equal to, 85 and less than 90)”, the IC50 (Ovcar3 (Muc16+) cells) is reported as 1 to 10 nM and the SKBr-3 % kill (SKBR3 (Her2+) cells) is reported as “**** (**** indicates % kill greater than, or equal to, 95 and less than 99)”. For the same molecule, the IC50 (SKBR3 (Her2+) cells) was 1 to 10 nM, the C4-2 % kill (C4-2 (STEAP2+) cells) was “**** (**** indicates % kill greater than, or equal to, 95 and less than 99)” and the IC50 (C4-2 (STEAP2+) cells) was ≥ 10 nM.
For COc1cc2cc(c1Cl)N(C)C(=O)CC(OC(=O)Nc1ccc(N)cc1Cl)C1(C)OC1C(C)C1CC(O)(NC(=O)O1)C(OC)C=CC=C(C)C2 (stereo not drawn) [Compound 17, Maytan-3-O-carbamoyl-N-(2-chloro-4-amino)benzene], the Ovcar3 % kill (Ovcar3 (Muc16+) cells) was “*** (*** indicates % kill greater than, or equal to, 90 and less than 95)”, the IC50 (Ovcar3 (Muc16+) cells) was 0.001 to 0.01 nM and the SKBr-3 % kill (SKBR3 (Her2+) cells) was “***** (***** indicates % kill greater than, or equal to, 99)”. The IC50 (SKBR3 (Her2+) cells) was 0.01 to 0.1 nM, the C4-2 % kill (C4-2 (STEAP2+) cells) was “**** (**** indicates % kill greater than, or equal to, 95 and less than 99)” and the IC50 (C4-2 (STEAP2+) cells) was 0.1 to 1 nM.
For COc1cc2cc(c1Cl)N(C)C(=O)CC(OC(=O)Nc1ccc(N)c(Cl)c1)C1(C)OC1C(C)C1CC(O)(NC(=O)O1)C(OC)C=CC=C(C)C2 (stereo not drawn) [Compound 30a, Maytan-3-O-carbamoyl-N-(3-chloro-4-amino)benzene], the Ovcar3 % kill (Ovcar3 (Muc16+) cells) was “*** (*** indicates % kill greater than, or equal to, 90 and less than 95)”, the IC50 (Ovcar3 (Muc16+) cells) was 0.1 to 1 nM and the SKBr-3 % kill (SKBR3 (Her2+) cells) was “**** (**** indicates % kill greater than, or equal to, 95 and less than 99)”. The IC50 (SKBR3 (Her2+) cells) was 0.1 to 1 nM, the C4-2 % kill (C4-2 (STEAP2+) cells) was “***** (***** indicates % kill greater than, or equal to, 99)” and the IC50 (C4-2 (STEAP2+) cells) was 1 to 10 nM.
In the case of COc1cc2cc(c1Cl)N(C)C(=O)C[C@H](OC(=O)Nc1ccc(N)cc1C)[C@]1(C)O[C@H]1[C@H](C)[C@@H]1C[C@@](O)(NC(=O)O1)[C@H](OC)/C=C/C=C(\C)C2 [Compound 30c, Maytan-3-O-carbamoyl-N-(2-methyl-4-amino)benzene], the Ovcar3 % kill (Ovcar3 (Muc16+) cells) is reported as “** (** indicates % kill greater than, or equal to, 85 and less than 90)”, the IC50 (Ovcar3 (Muc16+) cells) is reported as 1 to 10 nM and the SKBr-3 % kill (SKBR3 (Her2+) cells) is reported as “*** (*** indicates % kill greater than, or equal to, 90 and less than 95)”. For the same molecule, the IC50 (SKBR3 (Her2+) cells) was 1 to 10 nM, the C4-2 % kill (C4-2 (STEAP2+) cells) was “** (** indicates % kill greater than, or equal to, 85 and less than 90)” and the IC50 (C4-2 (STEAP2+) cells) was ≥ 10 nM.
With COc1cc(NC(=O)OC2CC(=O)N(C)c3cc(cc(OC)c3Cl)CC(C)=CC=CC(OC)C3(O)CC(OC(=O)N3)C(C)C3OC23C)ccc1N (stereo not drawn) [Compound 30j, Maytan-3-O-carbamoyl-N-(3-methoxy-4-amino)benzene] the Ovcar3 % kill (Ovcar3 (Muc16+) cells) was “** (** indicates % kill greater than, or equal to, 85 and less than 90)”, the IC50 (Ovcar3 (Muc16+) cells) was 1 to 10 nM and the SKBr-3 % kill (SKBR3 (Her2+) cells) was “**** (**** indicates % kill greater than, or equal to, 95 and less than 99)”. The IC50 (SKBR3 (Her2+) cells) was 0.1 to 1 nM, the C4-2 % kill (C4-2 (STEAP2+) cells) was “*** (*** indicates % kill greater than, or equal to, 90 and less than 95)” and the IC50 (C4-2 (STEAP2+) cells) was ≥ 10 nM.
COc1cc2cc(c1Cl)N(C)C(=O)CC(OC(=O)Nc1ccc(N)c(C(F)(F)F)c1)C1(C)OC1C(C)C1CC(O)(NC(=O)O1)C(OC)C=CC=C(C)C2 (stereo not drawn) [Compound 30l, Maytan-3-O-carbamoyl-N-(3-trifluoromethyl-4-amino)benzene] was tested, and the Ovcar3 % kill (Ovcar3 (Muc16+) cells) was “*** (*** indicates % kill greater than, or equal to, 90 and less than 95)”, the IC50 (Ovcar3 (Muc16+) cells) was 0.1 to 1 nM and the SKBr-3 % kill (SKBR3 (Her2+) cells) was “***** (***** indicates % kill greater than, or equal to, 99)”. The IC50 (SKBR3 (Her2+) cells) was 0.1 to 1 nM and the IC50 (C4-2 (STEAP2+) cells) was ≥ 10 nM.
With COc1cc2cc(c1Cl)N(C)C(=O)C[C@H](OC(=O)Nc1ccc(N)cc1Br)[C@]1(C)O[C@H]1[C@H](C)[C@@H]1C[C@@](O)(NC(=O)O1)[C@H](OC)/C=C/C=C(\C)C2 [Compound 30m, Maytan-3-O-carbamoyl-N-(2-bromo-4-amino)benzene] the Ovcar3 % kill (Ovcar3 (Muc16+) cells) was “** (** indicates % kill greater than, or equal to, 85 and less than 90)”, the IC50 (Ovcar3 (Muc16+) cells) was 0.001 to 0.01 nM and the SKBr-3 % kill (SKBR3 (Her2+) cells) was “***** (***** indicates % kill greater than, or equal to, 99)”. The IC50 (SKBR3 (Her2+) cells) was 0.01 to 0.1 nM, the C4-2 % kill (C4-2 (STEAP2+) cells) was “***** (***** indicates % kill greater than, or equal to, 99)” and the IC50 (C4-2 (STEAP2+) cells) was 0.01 to 0.1 nM.
With “Maytan-3-O-carbamoyl-N-(2-methoxy-4-amino)benzene [Compound 30k]” the Ovcar3 % kill (Ovcar3 (Muc16+) cells) was “*** (*** indicates % kill greater than, or equal to, 90 and less than 95)”, the IC50 (Ovcar3 (Muc16+) cells) was 0.1 to 1 nM and the SKBr-3 % kill (SKBR3 (Her2+) cells) was “***** (***** indicates % kill greater than, or equal to, 99)”. For the same molecule, the IC50 (SKBR3 (Her2+) cells) was 1 to 10 nM and the IC50 (C4-2 (STEAP2+) cells) was ≥ 10 nM.
For “Maytan-3-O-carbamoyl-N-(4-trifluoromethoxy-2-amino)benzene [Compound 30n]”, the SKBr-3 % kill (SKBR3 (Her2+) cells) was “***** (***** indicates % kill greater than, or equal to, 99)”, the IC50 (SKBR3 (Her2+) cells) was 1 to 10 nM and the C4-2 % kill (C4-2 (STEAP2+) cells) was “***** (***** indicates % kill greater than, or equal to, 99)”. For the same molecule, the IC50 (C4-2 (STEAP2+) cells) was ≥ 10 nM.
With “Maytan-3-O-carbamoyl-N-(6-methyl-3-amino)benzene [Compound 30e]” the SKBr-3 % kill (SKBR3 (Her2+) cells) was “*** (*** indicates % kill greater than, or equal to, 90 and less than 95)”, the IC50 (SKBR3 (Her2+) cells) was 1 to 10 nM and the C4-2 % kill (C4-2 (STEAP2+) cells) was “**** (**** indicates % kill greater than, or equal to, 95 and less than 99)”. The IC50 (C4-2 (STEAP2+) cells) was 1 to 10 nM.
